Test results reported in US11040028B2, “Penicinotam derivative, preparation method and use thereof” (OCEAN UNIVERSITY OF CHINA, priority 2017, dated 2021).

Legend:
Assay type in all cases: cell-based
[1] = test system: human hepatic stellate cells LX-2; assay: Anti-fibrosis activity test: inhibition of proliferation of human hepatic stellate cells LX-2 (CCK-8); conditions: Homo sapiens, 48 h
Description: (§1) BHK-21 cells in exponential growth phase were selected. After the fusion growth reached 85-95%, normal passage method was utilized to digest and collect the cells, followed by cell counting and adjusting the cell density to 2×10^4 cells/mL. The cells were seeded into 96-well plates, 100 μL/well, and were incubated under the condition of 5% CO2 at 37° C.
(§2) The supernatant was removed after the cells had adhered to the wall for 24 hours. The culture solution containing the prepared compounds at different concentrations were added to the wells, 100 μL/well, each concentration in triplicate. The cells were subcultured for 48 hours after administration. Commercially available pirfenidone was employed as the positive control.
(§3) 10 μL of CCK-8 solution ( 1/10 of the volume of the culture solution) was added to each well 48 hours after the administration, and incubated for 2 hours. The absorbance (A) of each well was determined by a microplate reader at 450 nm wavelength. The inhibition rate against cell proliferation for each compound was calculated based on A, wherein inhibition rate against cell proliferation (inhibition ratio, IR)=(1−value of experimental group (Ai)/value of blank control group (Ao))×100% and the IC50 value of each compound was calculated by the data processing software.
(§4) Using the same protocol for the cell experiments, the inhibitory activity of the test compounds against the proliferation of human lung fibroblasts HFL1, human hepatic stellate cells LX-2, human fibrosarcoma cells HT-1080, human dermal fibroblasts CCC-ESF-1, human embryonic lung fibroblast IMR-90, cardiac fibroblast RAT-iCell-C002 was assayed.

[2] = test system: human dermal fibroblasts CCC-ESF-1; assay: Anti-fibrosis activity test: inhibition of proliferation of human dermal fibroblasts CCC-ESF-1 (CCK-8); conditions: Fibroblast
Description: as §1, §2, §3, §4

[3] = test system: human fibrosarcoma cells HT-1080; assay: Anti-fibrosis activity test: inhibition of proliferation of human fibrosarcoma cells HT-1080 (CCK-8); conditions: Homo sapiens, HT-1080, 48 h
Description: as §1, §2, §3, §4

[4] = test system: human embryonic lung fibroblast IMR-90; assay: Anti-fibrosis activity test: inhibition of proliferation of human embryonic lung fibroblast IMR-90 (CCK-8)
Description: as §1, §2, §3, §4

[5] = test system: cardiac fibroblast RAT-iCell-C002; assay: Anti-fibrosis activity test: inhibition of proliferation of cardiac fibroblast RAT-iCell-C002 (CCK-8); conditions: Cardiac fibroblast, 48 h
Description: as §1, §2, §3, §4

[6] = test system: human lung fibroblasts HFL1; assay: Anti-fibrosis activity test: inhibition of proliferation of human lung fibroblasts HFL1 (CCK-8); conditions: Homo sapiens, HFL1, 48 h
Description: as §1, §2, §3, §4

[7] = test system: BHK-21 cells; assay: Anti-fibrosis activity test: inhibition of BHK-21 cell proliferation (CCK-8); conditions: Mesocricetus auratus, BHK-21, 48 h
Description: as §1, §2, §3

[8] = human hepatic stellate cells LX-2, CCK-8, 48 hours
[9] = human dermal fibroblasts CCC-ESF-1, CCK-8, 48 hours
[10] = human fibrosarcoma cells HT-1080, CCK-8, 48 hours
[11] = human embryonic lung fibroblast IMR-90, CCK-8, 48 hours
[12] = cardiac fibroblast RAT-iCell-C002, CCK-8, 48 hours
[13] = human lung fibroblasts HFL1, CCK-8, 48 hours
[14] = CCK-8, 48 hours after administration

Structure (SMILES)	IC50 [1, 8]	IC50 [2, 9]	IC50 [3, 10]	IC50 [4, 11]	IC50 [5, 12]	IC50 [6, 13]	IC50 [7, 14]	IC50 ([1]; LX-2, 48 h, LX-2 cells, CCK-8)	IC50 ([2]; Homo sapiens, CCC-ESF-1 cells, 48 h, CCK-8)	IC50 ([3]; HT-1080 cells, 48 h, CCK-8)	IC50 ([4]; Homo sapiens, IMR-90 cells, 48 h, CCK-8)	IC50 ([5]; RAT-iCell-C002 cells, CCK-8)	IC50 ([6]; HFL1 cells, 48 h, CCK-8)	IC50 ([7]; 48 h, CCK-8)
O=C1c2c(n(Cc3ccccc3Cl)c3cc(Cl)ccc3c2=O)-c2cccn21 [Compound 510a, 6-Chloro-4-(2-chlorobenzyl)-9H-pyrrolizino[1,2-b]quinoline-9,10(4H)-dione]	0.05 to 5 mM	0.05 to 5 mM	0.05 to 5 mM	0.05 to 5 mM	0.05 to 5 mM	0.05 to 5 mM	< 0.05 mM							
Cc1cc2n(c1)C(=O)c1c-2[nH]c2ccccc2c1=O [Compound 801a, 2-Methyl-9H-pyrrolizino[1,2-b]quinoline-9,10(4H)-dione]								0.05 to 5 mM	0.05 to 5 mM	0.05 to 5 mM	0.05 to 5 mM	0.05 to 5 mM	0.05 to 5 mM	< 0.05 mM
O=C1c2c(nc3cccc(Cl)c3c2OCc2ccccc2Cl)-c2cccn21 [Compound 645b, 8-chloro-9-((2-chlorobenzyl)oxy)-10H-pyrrolizino[1,2-b]quinolin-10-one]	0.05 to 5 mM	0.05 to 5 mM	0.05 to 5 mM	0.05 to 5 mM	0.05 to 5 mM	0.05 to 5 mM	0.05 to 5 mM							
N#Cc1ccc(Cn2c3c(c(=O)c4cc(C#N)c(N5CCNCC5)cc42)C(=O)n2cccc2-3)cc1 [Compound 641a, 4-(4-Cyanobenzyl)-9,10-dioxo-6-(piperazin-1-yl)-4,10-dihydro-9H-pyrrolizino[1,2-b]quinoline-7-carbonitrile]	0.05 to 5 mM	0.05 to 5 mM	0.05 to 5 mM	0.05 to 5 mM	0.05 to 5 mM	0.05 to 5 mM	0.05 to 5 mM							
N#Cc1cc2c(=O)c3c(n(Cc4ccc(-c5ccccc5)cc4)c2cc1N1CCNCC1)-c1cccn1C3=O [Compound 643a, 4-([1,1′-Biphenyl]-4-ylmethyl)-9,10-dioxo-6-(piperazin-1-yl)-4,10-dihydro-9H-pyrrolizino[1,2-b]quinoline-7-carbonitrile]	0.05 to 5 mM	0.05 to 5 mM	5 to 20 mM	0.05 to 5 mM	0.05 to 5 mM	0.05 to 5 mM	< 0.05 mM							
N#Cc1ccccc1-c1ccc(Cn2c3c(c(=O)c4cc(F)c(N5CCNCC5)cc42)C(=O)n2cccc2-3)cc1 [Compound 638a, 4′-((7-Fluoro-9,10-dioxo-6-(piperazin-1-yl)-9H-pyrrolizino[1,2-b]quinolin-4(10H)-yl)methyl)-[1,1′-biphenyl]-2-carbonitrile]	0.05 to 5 mM	0.05 to 5 mM	0.05 to 5 mM	0.05 to 5 mM	0.05 to 5 mM	0.05 to 5 mM	0.05 to 5 mM							
O=C1c2c(n(Cc3ccc(Cl)cc3)c3cc(N4CCNCC4)c(F)cc3c2=O)-c2cccn21 [Compound 632a, 4-(4-Chlorobenzyl)-7-fluoro-6-(piperazin-1-yl)-9H-pyrrolizino[1,2-b]quinoline-9,10(4H)-dione]	0.05 to 5 mM	< 0.05 mM	0.05 to 5 mM	0.05 to 5 mM	0.05 to 5 mM	0.05 to 5 mM	0.05 to 5 mM							
N#Cc1ccc(COc2c3c(nc4cc(N5CCNCC5)c(C#N)cc24)-c2cccn2C3=O)cc1 [Compound 641b, 9-((4-cyanobenzyl)oxy)-10-oxo-6-(piperazin-1-yl)-10H-pyrrolizino[1,2-b]quinoline-7-carbonitrile]	0.05 to 5 mM	0.05 to 5 mM	0.05 to 5 mM	0.05 to 5 mM	0.05 to 5 mM	0.05 to 5 mM	0.05 to 5 mM							
N#Cc1cc2c(OCc3ccc(-c4ccccc4)cc3)c3c(nc2cc1N1CCNCC1)-c1cccn1C3=O [Compound 643b, 9-([1,1′-biphenyl]-4-ylmethoxy)-10-oxo-6-(piperazin-1-yl)-10H-pyrrolizino[1,2-b]quinoline-7-carbonitrile]	0.05 to 5 mM	0.05 to 5 mM	< 0.05 mM	0.05 to 5 mM	0.05 to 5 mM	0.05 to 5 mM	0.05 to 5 mM							
O=C1c2c(nc3cc(N4CCNCC4)c(F)cc3c2OCc2cc(C(F)(F)F)cc(C(F)(F)F)c2)-c2cccn21 [Compound 639b, 9-((3,5-bis(trifluoromethyl)benzyl)oxy)-7-fluoro-6-(piperazin-1-yl)-10H-pyrrolizino[1,2-b]quinolin-10-one]	0.05 to 5 mM	0.05 to 5 mM	0.05 to 5 mM	0.05 to 5 mM	0.05 to 5 mM	0.05 to 5 mM	0.05 to 5 mM							
